Reference: patent US5968910A, “Compositions containing two or three inhibitors of different HIV reverse transcriptases” (priority 1994, dated 1999)
Converted amounts (≈) assume the structure as drawn. Like-named read-outs stand apart in the source and are kept apart here.

Legend:
Assay type in all cases: cell-based
[1] = system: HIV-1/TIBO R82150 (100-Ile); test: Sensitivity of mutant HIV-1 strain in CEM cell cultures; conditions: CEM cells, Table 1
Method: (§1) CEM cells were suspended at 250,000 cells per ml of culture medium and infected with wild-type HIV-I(IIIB) or mutant HIV-1 strains at 100 50% cell culture infective doses per ml. Then 100 μl of the infected cell suspensions was added to 200-μl microtiter plate wells containing 100 μl of an appropriate dilution of the test compounds. After 4 days incubation at 37° C., the cell cultures were examined for syncytium formation.

HIV-1/III(0.1) 103-Asn = test: as above; conditions: Table 5
Method: as §1

HIV-1/B 101Glu = test: as above; conditions: Table 5
Method: as §1

[2] = system: HIV-1/TSAO-m^3 T (138-Lys); test: as above; conditions: CEM cells, Table 1
Method: as §1

[3] = system: HIV-1/V(0.1) 101-Ile + 141-Glu; test: as above; conditions: Table 5
Method: as §1

[4] = system: HIV-1/TIBO R82913 (103-Asn); test: as above; conditions: CEM cells, Table 1
Method: as §1

HIV-1/Nev (106-Ala) = test: as above; conditions: CEM cells, Table 1
Method: as §1

HIV-1/IV(0.1) 103-Thr = test: as above; conditions: Table 5
Method: as §1

HIV-1/V(0.5) 103-Asn = test: as above; conditions: Table 5
Method: as §1

HIV-1/II(0.1) 100-Ile = test: as above; conditions: Table 5
Method: as §1

HIV-1/Pyr (181-Cys) = test: as above; conditions: CEM cells, Table 1
Method: as §1

HIV-1/I(0.1) 103-Asn = test: as above; conditions: Table 5
Method: as §1

HIV-1(IIIB) = test: Knock-out concentrations: breakthrough of HIV-1(IIIB)-induced cytopathicity in CEM cell cultures
Method: The culture medium consisted of RPMI 1640 containing 10% fetal bovine serum, 2 mM L-glutamine, and 0.075% NaHCO3. The multiplicity of the initial infection was ~1000 times the CCID50 (50% cell culture infective dose). Passages were performed every 3 to 4 days by adding 0.5 to 1.0 ml of the infected culture supernatant to 5 ml of a suspension containing 4×10^5 uninfected CEM cells per ml. Syncytium formation was used as a parameter of virus breakthrough in the cell cultures. In the drug combination experiments, the compounds were combined at the same initial concentrations as used for the two lowest concentrations in the single-drug experiments.
The drug concentrations were kept constant throughout the whole time period of the experiment (10 subcultivations or 35 days). Then the drugs were removed from the cell cultures, and the cells were further subcultured for at least 5 additional passages.

HIV-1(IIIB) (WT) = test: microbe, parasite or virus in culture; conditions: Human immunodeficiency virus 1, IIIB, CCRF-CEM
Method: as §1

With `Cc1ccnc2c1NC(=O)c1cccnc1N2C1CC1` [Nevirapine, reference compound] the “50% Effective Concentration” value [1] was 0.100 µg/mL, the EC50 (HIV-1/III(0.1) 103-Asn) was 0.38 µg/mL (≈ 1.43 µM) and the EC50 (HIV-1/B 101Glu) was greater than 2.5 µg/mL. The “50% Effective Concentration” value [2] was 0.030 µg/mL, the EC50 [3] was 0.24 µg/mL (≈ 0.901 µM) and the “50% Effective Concentration” value [4] was 1.5 µg/mL. For the same compound, the “50% Effective Concentration” value (HIV-1/Nev (106-Ala)) was 2.3 µg/mL, the EC50 (HIV-1/IV(0.1) 103-Thr) was 2.7 µg/mL (≈ 10.1 µM) and the EC50 (HIV-1/V(0.5) 103-Asn) was no less than 5 µg/mL. For the same compound, the EC50 (HIV-1/II(0.1) 100-Ile) was no less than 5 µg/mL, the “50% Effective Concentration” value (HIV-1/Pyr (181-Cys)) was 2.30 µg/mL and the EC50 (HIV-1/I(0.1) 103-Asn) was 1.7 µg/mL (≈ 6.38 µM). The “HIV-1-induced cytopathicity in cell culture” value (“HIV-1-induced cytopathicity” below) (HIV-1(IIIB); 0.1 μg/ml, day 4 post infection) was 37.5 percentage of control, the “HIV-1-induced cytopathicity” value (HIV-1(IIIB); 0.1 μg/ml, day 8 post infection) was 87.5 percentage of control and the “HIV-1-induced cytopathicity” value (HIV-1(IIIB); 0.1 μg/ml, day 11 post infection) was 100 percentage of control. The “HIV-1-induced cytopathicity” value (HIV-1(IIIB); 0.1 μg/ml, day 14 post infection) was 100 percentage of control, the “HIV-1-induced cytopathicity” value (HIV-1(IIIB); 0.1 μg/ml, day 17 post infection) was 100 percentage of control and the “HIV-1-induced cytopathicity” value (HIV-1(IIIB); 0.1 μg/ml, day 21 post infection) was 100 percentage of control. The “HIV-1-induced cytopathicity” value (HIV-1(IIIB); 0.1 μg/ml, day 25 post infection) was 100 percentage of control, the “HIV-1-induced cytopathicity” value (HIV-1(IIIB); 0.1 μg/ml, day 28 post infection) was 100 percentage of control and the “HIV-1-induced cytopathicity” value (HIV-1(IIIB); 0.1 μg/ml, day 32 post infection) was 100 percentage of control. The “HIV-1-induced cytopathicity” value (HIV-1(IIIB); 0.1 μg/ml, day 35 post infection) was 100 percentage of control, the “HIV-1-induced cytopathicity” value (HIV-1(IIIB); 0.1 μg/ml, day 39 post infection, compound absent from day 35) was 100 percentage of control and the “HIV-1-induced cytopathicity” value (HIV-1(IIIB); 0.1 μg/ml, day 42 post infection, compound absent from day 35) was 100 percentage of control. The “HIV-1-induced cytopathicity” value (HIV-1(IIIB); 0.1 μg/ml, day 46 post infection, compound absent from day 35) was 100 percentage of control, the “HIV-1-induced cytopathicity” value (HIV-1(IIIB); 0.1 μg/ml, day 49 post infection, compound absent from day 35) was 100 percentage of control and the “HIV-1-induced cytopathicity” value (HIV-1(IIIB); 0.1 μg/ml, day 53 post infection, compound absent from day 35) was 100 percentage of control. The “HIV-1-induced cytopathicity” value (HIV-1(IIIB); 0.5 μg/ml, day 4 post infection) was 6.25 percentage of control, the “HIV-1-induced cytopathicity” value (HIV-1(IIIB); 0.5 μg/ml, day 8 post infection) was 25 percentage of control and the “HIV-1-induced cytopathicity” value (HIV-1(IIIB); 0.5 μg/ml, day 11 post infection) was 50 percentage of control. For the same compound, the “HIV-1-induced cytopathicity” value (HIV-1(IIIB); 0.5 μg/ml, day 14 post infection) was 100 percentage of control, the “HIV-1-induced cytopathicity” value (HIV-1(IIIB); 0.5 μg/ml, day 17 post infection) was 100 percentage of control and the “HIV-1-induced cytopathicity” value (HIV-1(IIIB); 0.5 μg/ml, day 21 post infection) was 100 percentage of control. For the same compound, the “HIV-1-induced cytopathicity” value (HIV-1(IIIB); 0.5 μg/ml, day 25 post infection) was 100 percentage of control, the “HIV-1-induced cytopathicity” value (HIV-1(IIIB); 0.5 μg/ml, day 28 post infection) was 100 percentage of control and the “HIV-1-induced cytopathicity” value (HIV-1(IIIB); 0.5 μg/ml, day 32 post infection) was 100 percentage of control. For the same compound, the “HIV-1-induced cytopathicity” value (HIV-1(IIIB); 0.5 μg/ml, day 35 post infection) was 100 percentage of control, the “HIV-1-induced cytopathicity” value (HIV-1(IIIB); 0.5 μg/ml, day 39 post infection, compound absent from day 35) was 100 percentage of control and the “HIV-1-induced cytopathicity” value (HIV-1(IIIB); 0.5 μg/ml, day 42 post infection, compound absent from day 35) was 100 percentage of control. For the same compound, the “HIV-1-induced cytopathicity” value (HIV-1(IIIB); 0.5 μg/ml, day 46 post infection, compound absent from day 35) was 100 percentage of control, the “HIV-1-induced cytopathicity” value (HIV-1(IIIB); 0.5 μg/ml, day 49 post infection, compound absent from day 35) was 100 percentage of control and the “HIV-1-induced cytopathicity” value (HIV-1(IIIB); 0.5 μg/ml, day 53 post infection, compound absent from day 35) was 100 percentage of control. For the same compound, the “HIV-1-induced cytopathicity” value (HIV-1(IIIB); 2.5 μg/ml, day 4 post infection) was 0 percentage of control, the “HIV-1-induced cytopathicity” value (HIV-1(IIIB); 2.5 μg/ml, day 8 post infection) was 0 percentage of control and the “HIV-1-induced cytopathicity” value (HIV-1(IIIB); 2.5 μg/ml, day 11 post infection) was 6.25 percentage of control. For the same compound, the “HIV-1-induced cytopathicity” value (HIV-1(IIIB); 2.5 μg/ml, day 14 post infection) was 25 percentage of control, the “HIV-1-induced cytopathicity” value (HIV-1(IIIB); 2.5 μg/ml, day 17 post infection) was 62.5 percentage of control and the “HIV-1-induced cytopathicity” value (HIV-1(IIIB); 2.5 μg/ml, day 21 post infection) was 100 percentage of control. The “HIV-1-induced cytopathicity” value (HIV-1(IIIB); 2.5 μg/ml, day 25 post infection) was 100 percentage of control, the “HIV-1-induced cytopathicity” value (HIV-1(IIIB); 2.5 μg/ml, day 28 post infection) was 100 percentage of control and the “HIV-1-induced cytopathicity” value (HIV-1(IIIB); 2.5 μg/ml, day 32 post infection) was 100 percentage of control. The “HIV-1-induced cytopathicity” value (HIV-1(IIIB); 2.5 μg/ml, day 35 post infection) was 100 percentage of control, the “HIV-1-induced cytopathicity” value (HIV-1(IIIB); 2.5 μg/ml, day 39 post infection, compound absent from day 35) was 100 percentage of control and the “HIV-1-induced cytopathicity” value (HIV-1(IIIB); 2.5 μg/ml, day 42 post infection, compound absent from day 35) was 100 percentage of control. The “HIV-1-induced cytopathicity” value (HIV-1(IIIB); 2.5 μg/ml, day 46 post infection, compound absent from day 35) was 100 percentage of control, the “HIV-1-induced cytopathicity” value (HIV-1(IIIB); 2.5 μg/ml, day 49 post infection, compound absent from day 35) was 100 percentage of control and the “HIV-1-induced cytopathicity” value (HIV-1(IIIB); 2.5 μg/ml, day 53 post infection, compound absent from day 35) was 100 percentage of control. The EC50 (HIV-1(IIIB) (WT); CEM cells, Table 1, read-out: 50% Effective Concentration) was 0.007 µg/mL (≈ 0.0263 µM) and the EC50 (HIV-1(IIIB) (WT); HIV-1 (III8), Table 5, read-out: EC50) was 0.007 µg/mL (≈ 0.0263 µM).
